Laboratory results as given in ChEMBL document CHEMBL6114984, “Discovery of 2,4-diaminopyrimidine derivatives as potent inhibitors of FAK capable of activating the Hippo pathway for the treatment of esophageal squamous cell carcinoma” (Eur J Med Chem, 2025).

Experiments:
[1] = Metabolic stability in rat liver assessed as intrinsic clearance
in vitro [2] = settings: rat, liver microsomes
Description: Metabolic stability in rat liver microsomes assessed as parent compound remaining measured after 30 min

in vitro [3] = settings: rat, liver microsomes; remark: listed apart in the source
Description: Metabolic stability in rat liver microsomes assessed as parent compound remaining measured after 5 min

in vitro [4] = settings: rat, liver microsomes; remark: listed apart in the source
Description: Metabolic stability in rat liver microsomes assessed as parent compound remaining measured after 15 min

in vitro [5] = settings: rat, liver microsomes; remark: listed apart in the source
Description: Metabolic stability in rat liver microsomes assessed as parent compound remaining measured after 60 min

KYSE-150 cell line = experiment: Antiproliferative activity against human KYSE-150 cell line assessed as inhibition of cell proliferation incubated for 48 hrs by MTT assay; assay type: functional, cell-based; settings: KYSE-150, 48 h
MGC-803 = experiment: cells; settings: Homo sapiens, MGC-803, 48 h
Description: Antiproliferative activity against human MGC-803 cells assessed as inhibition of cell proliferation incubated for 48 hrs by MTT assay

HCT-116 = experiment: cells; settings: Homo sapiens, HCT-116, 48 h
Description: Antiproliferative activity against human HCT-116 cells assessed as inhibition of cell proliferation incubated for 48 hrs by MTT assay

KYSE-450 = experiment: cells; settings: Homo sapiens, KYSE-450, 48 h
Description: Antiproliferative activity against human KYSE-450 cells assessed as inhibition of cell proliferation incubated for 48 hrs by MTT assay

KYSE-30 = experiment: cells; settings: Homo sapiens, KYSE-30, 48 h
Description: Antiproliferative activity against human KYSE-30 cells assessed as inhibition of cell proliferation incubated for 48 hrs by MTT assay

ECa-109 cell line = experiment: cells; settings: Homo sapiens, ECa-109, 48 h
Description: Antiproliferative activity against human EC109 cells assessed as inhibition of cell proliferation incubated for 48 hrs by MTT assay

NCI-N87 = experiment: cells; settings: Homo sapiens, NCI-N87, 48 h
Description: Antiproliferative activity against human NCI-N87 cells assessed as inhibition of cell proliferation incubated for 48 hrs by MTT assay

NCI-H1975 = experiment: cells; settings: Homo sapiens, NCI-H1975, 48 h
Description: Antiproliferative activity against human NCI-H1975 cells assessed as inhibition of cell proliferation incubated for 48 hrs by MTT assay

MDA-MB-231 = experiment: cells; settings: Homo sapiens, MDA-MB-231, 48 h
Description: Antiproliferative activity against human MDA-MB-231 cells assessed as inhibition of cell proliferation incubated for 48 hrs by MTT assay

DU-145 = experiment: cells; settings: Homo sapiens, DU-145, 48 h
Description: Antiproliferative activity against human DU-145 cells assessed as inhibition of cell proliferation incubated for 48 hrs by MTT assay

Huh-7 = experiment: cells; settings: Homo sapiens, Huh-7, 48 h
Description: Antiproliferative activity against human Huh-7 cells assessed as inhibition of cell proliferation incubated for 48 hrs by MTT assay

Row | Compound | CLint scaled [1] [mL/min/kg] | remaining at 0.5 h (in vitro [2]) [%] | remaining at 5 min (in vitro [3]) [%] | remaining at 0.25 h (in vitro [4]) [%] | remaining at 1 h (in vitro [5]) [%] | IC50 (KYSE-150 cell line) [nM] | IC50 (MGC-803) [nM] | IC50 (HCT-116) [nM] | IC50 (KYSE-450) [nM] | IC50 (KYSE-30) [nM] | IC50 (ECa-109 cell line) [nM] | IC50 (NCI-N87) [nM] | IC50 (NCI-H1975) [nM] | IC50 (MDA-MB-231) [nM] | IC50 (DU-145) [nM] | IC50 (Huh-7) [nM]
1 | O=C(O)Cc1ccccc1Nc1c(Cl)cccc1Cl [DICLOFENAC] | 127 | 33.8 | 77.9 | 55.7 | 11.5 |  |  |  |  |  |  |  |  |  |  | 
2 | CNC(=O)c1ccccc1Nc1nc(Nc2ccc(N3CCOCC3)cc2OC)ncc1Cl |  |  |  |  |  | 1820 | 1280 | 1520 | 3440 | 1030 | 3270 | 2120 | 1820 | 2120 | 720 | 510
